According to patent US11117892B2, “Pyrrolo-pyridine derivative compound, method for preparing same, and pharmaceutical composition containing same as active ingredient for prevention or treatment of protein kinase-related diseases” (DAEGU-GYEONGBUK MEDICAL INNOVATION FOUNDATION, priority 2017, dated 2021):

Legend:
Experiment in all cases: scanMAX Kinase assay panel
Assay type in all cases: binding
MUSK = MUSK (Homo sapiens (Human), UniProt O15146); details: read-out: % control
Outline: (§1)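 Using scanMAX, compound selectivity across kinases is determined. The output is % control, bounded by a DMSO control at 100% and a reference positive compound at 0%.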

p38-delta = p38-delta (Homo sapiens (Human), UniProt O15264); details: read-out: % control
Outline: as §1

NDR1 = NDR1 (Homo sapiens (Human), UniProt Q15208); details: read-out: % control
Outline: as §1

ZAP70 = ZAP70 (Homo sapiens (Human), UniProt P43403); details: read-out: % control
Outline: as §1

FLT3(ITD) = details: 1 uM
Outline: as §1

CDKL3 = CDKL3 (Homo sapiens (Human), UniProt Q8IVW4); details: read-out: % control
Outline: as §1

CTK = CTK (Homo sapiens (Human), UniProt P42679); details: read-out: % control
Outline: as §1

MAP4K3 = MAP4K3 (Homo sapiens (Human), UniProt Q8IVH8); details: read-out: % control
Outline: as §1

MYLK = MYLK (Homo sapiens (Human), UniProt Q15746); details: read-out: % control
Outline: as §1

CDK9 = CDK9 (Homo sapiens (Human), UniProt P50750); details: read-out: % control
Outline: as §1

MLCK = MLCK (Homo sapiens (Human), UniProt Q32MK0); details: read-out: % control
Outline: as §1

EGFR(G719S) = EGFR(G719S) (Homo sapiens (Human), UniProt P00533, G719S); details: read-out: % control
Outline: as §1

PIK3CA(E545A) = PIK3CA(E545A) (Homo sapiens (Human), UniProt P42336, E545A); details: read-out: % control
Outline: as §1

LTK = LTK (Homo sapiens (Human), UniProt P29376); details: read-out: % control
Outline: as §1

ERK3 = ERK3 (Homo sapiens (Human), UniProt Q16659); details: read-out: % control
Outline: as §1

GRK1 = GRK1 (Homo sapiens (Human), UniProt Q15835); details: read-out: % control
Outline: as §1

LYN = LYN (Homo sapiens (Human), UniProt P07948); details: read-out: % control
Outline: as §1

PRKCQ = PRKCQ (Homo sapiens (Human), UniProt Q04759); details: read-out: % control
Outline: as §1

PKN1 = PKN1 (Homo sapiens (Human), UniProt Q16512); details: read-out: % control
Outline: as §1

TGFBR2 = TGFBR2 (Homo sapiens (Human), UniProt P37173); details: read-out: % control
Outline: as §1

ADCK4 = ADCK4 (Homo sapiens (Human), UniProt Q96D53); details: read-out: % control
Outline: as §1

GRK4 = GRK4 (Homo sapiens (Human), UniProt P32298); details: read-out: % control
Outline: as §1

[1] = target: ABL1(E255K)-phosphorylated (Homo sapiens (Human), UniProt P00519, E255K); details: read-out: % control
Outline: as §1

LOK = LOK (Homo sapiens (Human), UniProt O94804); details: read-out: % control
Outline: as §1

INSR = INSR (Homo sapiens (Human), UniProt P06213); details: read-out: % control
Outline: as §1

[2] = target: RSK2(Kin.Dom.1-N-terminal) (Homo sapiens (Human), UniProt P51812); details: read-out: % control
Outline: as §1

ITK = ITK (Homo sapiens (Human), UniProt Q08881); details: read-out: % control
Outline: as §1

FLT3(D835Y) = FLT3(D835Y) (Homo sapiens (Human), UniProt P36888, D835Y); details: read-out: % control
Outline: as §1

NEK1 = NEK1 (Homo sapiens (Human), UniProt Q96PY6); details: read-out: % control
Outline: as §1

GRK7 = GRK7 (Homo sapiens (Human), UniProt Q8WTQ7); details: read-out: % control
Outline: as §1

p38-gamma = p38-gamma (Homo sapiens (Human), UniProt P53778); details: read-out: % control
Outline: as §1

[3] = target: JAK1(JH1domain-catalytic) (Homo sapiens (Human), UniProt P23458); details: read-out: % control
Outline: as §1

EIF2AK1 = EIF2AK1 (Homo sapiens (Human), UniProt Q9BQI3); details: read-out: % control
Outline: as §1

BTK = BTK (Homo sapiens (Human), UniProt Q06187); details: read-out: % control
Outline: as §1

LRRK2(G2019S) = LRRK2(G2019S) (Homo sapiens (Human), UniProt Q5S007, G2019S); details: read-out: % control
Outline: as §1

HUNK = HUNK (Homo sapiens (Human), UniProt P57058); details: read-out: % control
Outline: as §1

MAP4K4 = MAP4K4 (Homo sapiens (Human), UniProt O95819); details: read-out: % control
Outline: as §1

CSNK1G2 = CSNK1G2 (Homo sapiens (Human), UniProt P78368); details: read-out: % control
Outline: as §1

MELK = MELK (Homo sapiens (Human), UniProt Q14680); details: read-out: % control
Outline: as §1

NDR1, sequence (Q15208 whole entry): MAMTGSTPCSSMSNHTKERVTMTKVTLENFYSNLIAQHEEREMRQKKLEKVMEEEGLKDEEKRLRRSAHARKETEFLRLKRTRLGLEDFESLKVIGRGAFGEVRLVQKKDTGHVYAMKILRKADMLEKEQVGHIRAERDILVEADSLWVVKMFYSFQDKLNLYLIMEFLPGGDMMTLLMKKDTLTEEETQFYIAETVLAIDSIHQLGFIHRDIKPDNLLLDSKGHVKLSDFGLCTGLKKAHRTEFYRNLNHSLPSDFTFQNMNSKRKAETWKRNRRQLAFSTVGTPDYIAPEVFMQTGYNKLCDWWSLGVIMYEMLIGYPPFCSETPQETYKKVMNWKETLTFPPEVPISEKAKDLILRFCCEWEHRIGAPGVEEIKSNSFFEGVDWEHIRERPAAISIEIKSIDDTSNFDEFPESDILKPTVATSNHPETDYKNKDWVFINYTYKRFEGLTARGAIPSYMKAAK
GRK7, sequence (Q8WTQ7 whole entry): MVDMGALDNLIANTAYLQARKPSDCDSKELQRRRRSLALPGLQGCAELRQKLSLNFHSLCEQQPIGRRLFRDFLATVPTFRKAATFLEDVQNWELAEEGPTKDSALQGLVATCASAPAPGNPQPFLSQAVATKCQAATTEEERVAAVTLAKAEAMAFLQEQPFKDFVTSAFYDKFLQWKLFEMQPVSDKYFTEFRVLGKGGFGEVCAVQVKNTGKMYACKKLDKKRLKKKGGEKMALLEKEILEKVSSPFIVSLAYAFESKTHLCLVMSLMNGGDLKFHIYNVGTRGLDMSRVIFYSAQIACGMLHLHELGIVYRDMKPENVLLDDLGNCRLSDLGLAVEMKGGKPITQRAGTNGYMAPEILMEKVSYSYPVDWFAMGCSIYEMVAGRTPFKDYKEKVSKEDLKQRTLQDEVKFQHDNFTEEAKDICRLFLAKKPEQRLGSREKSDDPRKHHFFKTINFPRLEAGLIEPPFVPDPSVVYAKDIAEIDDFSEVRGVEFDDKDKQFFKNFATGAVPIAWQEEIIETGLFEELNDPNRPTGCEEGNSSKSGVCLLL
ADCK4, sequence (Q96D53 whole entry): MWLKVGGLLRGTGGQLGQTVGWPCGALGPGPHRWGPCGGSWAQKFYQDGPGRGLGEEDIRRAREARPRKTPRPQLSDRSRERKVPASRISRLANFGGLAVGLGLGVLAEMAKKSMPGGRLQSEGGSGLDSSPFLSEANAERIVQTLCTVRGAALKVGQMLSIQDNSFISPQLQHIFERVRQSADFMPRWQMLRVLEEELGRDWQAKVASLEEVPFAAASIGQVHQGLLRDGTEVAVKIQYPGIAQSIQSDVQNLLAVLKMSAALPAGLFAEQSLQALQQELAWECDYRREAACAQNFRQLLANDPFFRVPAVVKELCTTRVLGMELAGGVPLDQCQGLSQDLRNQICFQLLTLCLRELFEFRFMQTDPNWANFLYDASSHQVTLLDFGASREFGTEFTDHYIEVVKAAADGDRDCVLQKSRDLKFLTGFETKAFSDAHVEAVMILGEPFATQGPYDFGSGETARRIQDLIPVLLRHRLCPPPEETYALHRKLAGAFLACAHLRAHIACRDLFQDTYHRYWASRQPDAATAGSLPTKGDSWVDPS
GRK4, sequence (P32298 whole entry): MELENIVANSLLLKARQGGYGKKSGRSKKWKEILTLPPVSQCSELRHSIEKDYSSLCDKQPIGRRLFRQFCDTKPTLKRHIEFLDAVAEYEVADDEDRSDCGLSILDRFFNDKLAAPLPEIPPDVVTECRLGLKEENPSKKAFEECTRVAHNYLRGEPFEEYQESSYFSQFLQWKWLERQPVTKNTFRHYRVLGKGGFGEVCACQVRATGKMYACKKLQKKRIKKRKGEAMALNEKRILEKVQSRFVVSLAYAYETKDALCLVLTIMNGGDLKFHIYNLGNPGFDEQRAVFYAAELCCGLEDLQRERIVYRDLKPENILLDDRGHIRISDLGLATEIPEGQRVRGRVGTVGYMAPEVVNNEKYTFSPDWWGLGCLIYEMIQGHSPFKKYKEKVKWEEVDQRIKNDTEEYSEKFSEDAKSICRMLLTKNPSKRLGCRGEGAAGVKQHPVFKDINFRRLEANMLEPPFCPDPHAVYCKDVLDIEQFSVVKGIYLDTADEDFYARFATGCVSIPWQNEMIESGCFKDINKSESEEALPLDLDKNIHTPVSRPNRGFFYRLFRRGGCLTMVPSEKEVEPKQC
EGFR(G719S), sequence (P00533 25-1210 G719S): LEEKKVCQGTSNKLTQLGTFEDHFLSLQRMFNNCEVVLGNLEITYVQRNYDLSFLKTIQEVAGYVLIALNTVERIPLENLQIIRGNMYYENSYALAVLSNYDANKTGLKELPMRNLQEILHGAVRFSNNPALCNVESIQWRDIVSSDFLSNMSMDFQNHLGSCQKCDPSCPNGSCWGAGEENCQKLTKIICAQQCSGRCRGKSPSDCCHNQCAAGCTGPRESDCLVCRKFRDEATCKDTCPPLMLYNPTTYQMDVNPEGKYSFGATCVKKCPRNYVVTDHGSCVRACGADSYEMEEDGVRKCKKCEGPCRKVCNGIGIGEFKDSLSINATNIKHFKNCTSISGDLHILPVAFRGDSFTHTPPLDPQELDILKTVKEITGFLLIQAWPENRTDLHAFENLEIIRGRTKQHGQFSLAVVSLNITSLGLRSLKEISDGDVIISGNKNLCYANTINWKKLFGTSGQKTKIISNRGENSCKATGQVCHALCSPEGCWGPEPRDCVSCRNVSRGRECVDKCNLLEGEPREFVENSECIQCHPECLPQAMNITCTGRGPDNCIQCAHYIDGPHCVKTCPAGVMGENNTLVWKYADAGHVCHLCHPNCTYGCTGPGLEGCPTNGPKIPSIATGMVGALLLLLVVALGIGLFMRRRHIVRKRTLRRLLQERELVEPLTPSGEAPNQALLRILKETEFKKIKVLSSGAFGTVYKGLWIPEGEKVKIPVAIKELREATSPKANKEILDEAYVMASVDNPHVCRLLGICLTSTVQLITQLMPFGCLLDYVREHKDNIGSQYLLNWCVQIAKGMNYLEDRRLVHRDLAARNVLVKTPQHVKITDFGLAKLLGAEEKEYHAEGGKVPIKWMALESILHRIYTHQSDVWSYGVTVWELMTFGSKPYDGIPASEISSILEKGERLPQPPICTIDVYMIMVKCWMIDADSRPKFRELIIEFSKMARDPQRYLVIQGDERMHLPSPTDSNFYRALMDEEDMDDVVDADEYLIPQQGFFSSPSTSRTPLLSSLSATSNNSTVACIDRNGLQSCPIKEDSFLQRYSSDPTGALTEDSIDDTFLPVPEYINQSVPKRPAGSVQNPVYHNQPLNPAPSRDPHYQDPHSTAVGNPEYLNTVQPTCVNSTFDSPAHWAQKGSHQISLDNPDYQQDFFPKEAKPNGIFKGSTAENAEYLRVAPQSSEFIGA
LTK, sequence (P29376 17-864): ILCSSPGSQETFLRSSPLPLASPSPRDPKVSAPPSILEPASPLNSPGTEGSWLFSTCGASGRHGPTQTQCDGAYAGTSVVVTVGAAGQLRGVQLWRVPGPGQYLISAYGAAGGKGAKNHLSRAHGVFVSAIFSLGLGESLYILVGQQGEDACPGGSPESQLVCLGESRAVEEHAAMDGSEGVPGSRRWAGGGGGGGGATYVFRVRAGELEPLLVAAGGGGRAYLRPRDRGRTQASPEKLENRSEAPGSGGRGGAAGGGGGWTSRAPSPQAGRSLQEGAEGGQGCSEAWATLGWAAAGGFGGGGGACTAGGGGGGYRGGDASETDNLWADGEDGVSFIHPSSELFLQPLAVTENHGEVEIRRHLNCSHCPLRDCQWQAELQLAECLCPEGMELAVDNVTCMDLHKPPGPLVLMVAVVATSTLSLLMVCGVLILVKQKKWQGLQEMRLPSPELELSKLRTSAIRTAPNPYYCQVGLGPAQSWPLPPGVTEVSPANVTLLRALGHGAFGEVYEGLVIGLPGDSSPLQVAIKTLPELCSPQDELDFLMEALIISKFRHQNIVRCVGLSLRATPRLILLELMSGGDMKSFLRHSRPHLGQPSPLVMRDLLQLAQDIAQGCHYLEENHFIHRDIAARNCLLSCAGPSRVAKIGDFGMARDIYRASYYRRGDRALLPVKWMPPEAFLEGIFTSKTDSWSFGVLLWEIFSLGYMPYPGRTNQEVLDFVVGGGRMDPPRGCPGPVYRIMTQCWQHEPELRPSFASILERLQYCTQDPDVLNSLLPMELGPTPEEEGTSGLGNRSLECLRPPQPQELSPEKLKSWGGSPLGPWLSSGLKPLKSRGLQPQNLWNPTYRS
JAK1(JH1domain-catalytic), sequence (P23458 875-1153): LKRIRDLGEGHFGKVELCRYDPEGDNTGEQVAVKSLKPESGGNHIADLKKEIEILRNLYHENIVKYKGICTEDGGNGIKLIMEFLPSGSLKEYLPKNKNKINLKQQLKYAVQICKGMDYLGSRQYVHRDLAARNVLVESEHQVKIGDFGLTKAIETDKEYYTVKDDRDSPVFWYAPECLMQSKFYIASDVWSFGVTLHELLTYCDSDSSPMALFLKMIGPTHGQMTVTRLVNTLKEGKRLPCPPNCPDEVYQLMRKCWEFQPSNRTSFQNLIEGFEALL
GRK1, sequence (Q15835 whole entry): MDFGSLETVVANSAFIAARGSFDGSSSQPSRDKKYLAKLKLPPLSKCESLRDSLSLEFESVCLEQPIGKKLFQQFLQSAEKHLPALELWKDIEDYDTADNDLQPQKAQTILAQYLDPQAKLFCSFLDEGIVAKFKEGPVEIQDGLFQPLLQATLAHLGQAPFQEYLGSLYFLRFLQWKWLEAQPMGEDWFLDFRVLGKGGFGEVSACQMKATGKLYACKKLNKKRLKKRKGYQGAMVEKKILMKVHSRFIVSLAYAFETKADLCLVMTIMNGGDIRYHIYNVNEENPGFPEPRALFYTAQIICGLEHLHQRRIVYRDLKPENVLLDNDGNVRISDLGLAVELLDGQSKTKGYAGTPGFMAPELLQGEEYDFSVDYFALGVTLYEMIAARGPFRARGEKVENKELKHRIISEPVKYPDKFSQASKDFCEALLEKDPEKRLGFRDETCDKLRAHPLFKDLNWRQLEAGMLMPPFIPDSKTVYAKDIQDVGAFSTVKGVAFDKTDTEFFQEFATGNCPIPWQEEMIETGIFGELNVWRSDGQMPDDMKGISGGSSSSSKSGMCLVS

Row | Structure (SMILES) | remaining binding at 1 µM (MUSK) | remaining binding at 1 µM (p38-delta) | remaining binding at 1 µM (NDR1) | remaining binding at 1 µM (ZAP70) | % control (FLT3(ITD)) | remaining binding at 1 µM (CDKL3) | remaining binding at 1 µM (CTK) | remaining binding at 1 µM (MAP4K3) | remaining binding at 1 µM (MYLK) | remaining binding at 1 µM (CDK9) | remaining binding at 1 µM (MLCK) | remaining binding at 1 µM (EGFR(G719S)) | remaining binding at 1 µM (PIK3CA(E545A)) | remaining binding at 1 µM (LTK) | remaining binding at 1 µM (ERK3) | remaining binding at 1 µM (GRK1) | remaining binding at 1 µM (LYN) | remaining binding at 1 µM (PRKCQ) | remaining binding at 1 µM (PKN1) | remaining binding at 1 µM (TGFBR2) | other results
1 | CCNc1cc(Nc2ccc(C(=O)N3CCC(N4CCOCC4)CC3)cc2OC)nc2[nH]cc(C#N)c12 [Example 18, 4-(ethylamino)-6-((2-methoxy-4-(4-morpholinopiperidine-1-carbonyl)phenyl)amino)-1H-pyrrolo[2,3-b]pyridine-3-carbonitrile] | 97% | 99% | 69% | 38% | 92% | 100% | 100% | 93% | 6% | 100% | 87% | 80% | 100% | 6.2% | 85% | 81% | 90% | 94% | 85% | 100% | remaining binding at 1 µM (ADCK4): 100%; remaining binding at 1 µM (GRK4): 100%; remaining binding at 1 µM [1]: 77%; remaining binding at 1 µM (LOK): 91%; remaining binding at 1 µM (INSR): 36%; remaining binding at 1 µM [2]: 78%; remaining binding at 1 µM (ITK): 87%; remaining binding at 1 µM (FLT3(D835Y)): 82%; remaining binding at 1 µM (NEK1): 100%; remaining binding at 1 µM (GRK7): 96%; remaining binding at 1 µM (p38-gamma): 77%; remaining binding at 1 µM [3]: 100%; remaining binding at 1 µM (EIF2AK1): 92%; remaining binding at 1 µM (BTK): 99%; remaining binding at 1 µM (LRRK2(G2019S)): 0.6%; remaining binding at 1 µM (HUNK): 57%; remaining binding at 1 µM (MAP4K4): 100%; remaining binding at 1 µM (CSNK1G2): 27%; remaining binding at 1 µM (MELK): 62%
2 | CCNc1cc(Nc2ccc(C(=O)N3CCC(N4CCOCC4)CC3)cc2OC)nc2[nH]cc(C(F)(F)F)c12 [Example 57, (4-((4-(ethylamino)-3-(trifluoromethyl)-1H-pyrrolo[2,3-b]pyridin-6-yl)amino)-3-methoxyphenyl) (4-morpholinopiperidin-1-yl)methanone] | 100% | 85% | 89% | 100% | 79% | 61% | 84% | 91% | 7.8% | 85% | 78% | 92% | 77% | 20% | 94% | 94% | 100% | 96% | 71% | 97% | remaining binding at 1 µM (ADCK4): 75%; remaining binding at 1 µM (GRK4): 100%; remaining binding at 1 µM [1]: 84%; remaining binding at 1 µM (LOK): 84%; remaining binding at 1 µM (INSR): 48%; remaining binding at 1 µM [2]: 96%; remaining binding at 1 µM (ITK): 97%; remaining binding at 1 µM (FLT3(D835Y)): 88%; remaining binding at 1 µM (NEK1): 81%; remaining binding at 1 µM (GRK7): 84%; remaining binding at 1 µM (p38-gamma): 77%; remaining binding at 1 µM [3]: 97%; remaining binding at 1 µM (EIF2AK1): 99%; remaining binding at 1 µM (BTK): 100%; remaining binding at 1 µM (LRRK2(G2019S)): 27%; remaining binding at 1 µM (HUNK): 51%; remaining binding at 1 µM (MAP4K4): 100%; remaining binding at 1 µM (CSNK1G2): 86%; remaining binding at 1 µM (MELK): 69%
